Laboratory results published in patent publication US20090005390A1, “NOVEL QUINUCLIDINE DERIVATIVES AND THEIR USE” (N[…]/S, priority 2002, published 2009).
pIC50: −log10 of the molar value.

Assays:
[1] = molecular target: T1, α7-subtype of nicotinic receptors (Rattus norvegicus, UniProt Q05941); assay: In vitro inhibition of 3H-α-bungarotoxine binding in rat brain; conditions: rat cerebral cortex homogenate; 3H-α-bungarotoxine 2 nM; 2 hours at 37° C.
T1 construct: Cerebral cortices from male Wistar rats (150-250 g) are homogenised; from tissue; host or cells: rat cerebral cortex membrane homogenate
T1 sequence (Q05941 23-502): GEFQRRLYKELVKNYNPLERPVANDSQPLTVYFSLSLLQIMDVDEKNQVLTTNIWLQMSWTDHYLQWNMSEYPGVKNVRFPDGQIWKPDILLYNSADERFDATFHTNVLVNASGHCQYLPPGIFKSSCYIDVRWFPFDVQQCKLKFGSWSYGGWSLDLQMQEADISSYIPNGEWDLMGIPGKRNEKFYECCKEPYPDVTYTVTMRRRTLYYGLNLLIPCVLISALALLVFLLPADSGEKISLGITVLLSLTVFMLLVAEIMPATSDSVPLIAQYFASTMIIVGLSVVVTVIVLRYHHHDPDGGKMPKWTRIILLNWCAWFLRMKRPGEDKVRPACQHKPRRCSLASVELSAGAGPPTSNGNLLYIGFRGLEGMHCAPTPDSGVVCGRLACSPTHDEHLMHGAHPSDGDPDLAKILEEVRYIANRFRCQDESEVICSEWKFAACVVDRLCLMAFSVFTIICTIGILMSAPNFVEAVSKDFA

| SMILES | melting point [°C] | pIC50 [1] |
| --- | --- | --- |
| O=C(O)/C=C/C(=O)O.c1ccc(-c2ccc(OC3CN4CCC3CC4)nn2)cc1 (racemic) | 168.5 to 172 | – |
| C.I.c1ccc2nc(OC3CN4CCC3CC4)cnc2c1 (racemic) | 229 to 230 | – |
| O=C(O)/C=C/C(=O)O.c1cncc(-c2ccc(OC3CN4CCC3CC4)nn2)c1 (racemic) | 137.2 to 143.2 | – |
| O=C(O)/C=C/C(=O)O.c1cncc(-c2cnc(OC3CN4CCC3CC4)s2)c1 (racemic) [Compound D6, (±)-3-[5-(3-Pyridyl)-thiazol-2-yloxy]-1-aza-bicyclo[2.2.2]octane fumaric acid salt] | 82.7 to 86 | 6.74 |
| O=C(O)/C=C/C(=O)O.c1cc(-c2cnc(OC3CN4CCC3CC4)s2)cs1 (racemic) [Compound D3, (±)-3-[5-(3-Thienyl)-thiazol-2-yloxy]-1-aza-bicyclo[2.2.2]octane fumaric acid salt] | 68.5 to 74.3 | 6.96 |
| O=C(O)/C=C/C(=O)O.c1cc(-c2nnc(OC3CN4CCC3CC4)s2)cs1 (racemic) [Compound B17, (±)-3-[5-(3-Thienyl)-1,3,4-thiadiazol-2-yloxy]-1-aza-bicyclo[2.2.2]octane fumaric acid salt] | 186 to 188 | 6.82 |
| O=C(O)/C=C/C(=O)O.c1ccc(-c2ccc(OC3CN4CCC3CC4)cc2)cc1 (racemic) [Compound A2, (±)-3-(4-Phenylphenyloxy)-1-aza-bicyclo[2.2.2]octane fumaric acid salt] | 173.5 to 185.1 | 6.80 |
| O=C(O)/C=C/C(=O)O.c1cnc2ccc(OC3CN4CCC3CC4)cc2c1 (racemic) | 146 to 147 | – |
| Clc1ccc(OC2CN3CCC2CC3)nn1.O=C(O)/C=C/C(=O)O (racemic) | 164 to 164.5 | – |
| O=C(O)/C=C/C(=O)O.c1ccc(-c2cnc(OC3CN4CCC3CC4)s2)cc1 (racemic) [Compound D1, (±)-3-(5-Phenyl-thiazol-2-yloxy)-1-aza-bicyclo[2.2.2]octane fumaric acid salt] | 170.9 to 172.2 | 7.28 |
| O=C(O)/C=C/C(=O)O.c1ccc2sc(OC3CN4CCC3CC4)nc2c1 (racemic) [Compound B3, (±)-3-(Benzothiazol-2-yloxy)-1-aza-bicyclo[2.2.2]octane fumaric acid salt] | 173.7 to 174.2 | 6.77 |
| Brc1ccc(OC2CN3CCC2CC3)nn1.O=C(O)/C=C/C(=O)O (racemic) | 152.8 | – |
| O=C(O)/C=C/C(=O)O.c1csc(-c2cnc(OC3CN4CCC3CC4)s2)c1 (racemic) [Compound D4, (±)-3-[5-(2-Thienyl)-thiazol-2-yloxy]-1-aza-bicyclo[2.2.2]octane fumaric acid salt] | 152.6 to 154.9 | 7.70 |
| C.I.c1ccc2c(OC3CN4CCC3CC4)nsc2c1 (racemic) | 180.1 to 186.4 | – |
| O=C(O)/C=C/C(=O)O.c1ccc2nc(OC3CN4CCC3CC4)cnc2c1 (racemic) | 127.7 to 128.5 | – |
| O=C(O)/C=C/C(=O)O.c1coc(-c2ccc(OC3CN4CCC3CC4)nn2)c1 (racemic) | 175.8 to 178.2 | – |
| Fc1ccc(-c2cnc(OC3CN4CCC3CC4)s2)c(F)c1.O=C(O)/C=C/C(=O)O (racemic) | 84.3 to 86.3 | – |
| O=C(O)/C=C/C(=O)O.c1ccc2c(OC3CN4CCC3CC4)nsc2c1 (racemic) | 172.3 to 173.6 | – |

| SMILES | melting point [°C] | pIC50 [1] |
| --- | --- | --- |
| O=C(O)/C=C/C(=O)O.c1cc(-c2ccc(OC3CN4CCC3CC4)nn2)co1 (racemic) | 224.8 to 225.4 | – |
| C.I.c1ccc2nc(OC3CN4CCC3CC4)ccc2c1 (racemic) | 156.6 to 175.2 | – |
| O=C(O)/C=C/C(=O)O.c1cc(-c2cnc(OC3CN4CCC3CC4)s2)co1 (racemic) [Compound D5, (±)-3-[5-(3-Furanyl)-thiazol-2-yloxy]-1-aza-bicyclo[2.2.2]octane fumaric acid salt] | 127.6 to 136.2 | 7.32 |
| O=C(O)/C=C/C(=O)O.c1cc2c(cc1OC1CN3CCC1CC3)CCC2 (racemic) | 149.3 to 150.5 | – |
| O=C(O)/C=C/C(=O)O.c1ccc(-c2ccccc2OC2CN3CCC2CC3)cc1 (racemic) | 125.4 | – |
| O=C(O)/C=C/C(=O)O.c1csc(-c2ccc(OC3CN4CCC3CC4)nn2)c1 (racemic) [Compound D8, (±)-3-[6-(2-Thienyl)-pyridazin-3-yloxy]-1-aza-bicyclo[2.2.2]octane fumaric acid salt] | 180.3 to 191.1 | 7.28 |
| O=C(O)/C=C/C(=O)O.c1ccc2oc(OC3CN4CCC3CC4)nc2c1 (racemic) | 187.2 to 188.8 | – |
| Cn1c(OC2CN3CCC2CC3)nc2ccccc21.O=C(O)/C=C/C(=O)O (racemic) | 184.9 to 185.9 | – |
| Clc1nc2ccccc2nc1OC1CN2CCC1CC2.O=C(O)/C=C/C(=O)O (racemic) | 120.8 to 122.1 | – |
| O=C(O)/C=C/C(=O)O.c1cc(-c2ccc(OC3CN4CCC3CC4)nn2)cs1 (racemic) [Compound D7, (±)-3-[6-(3-Thienyl)-pyridazin-3-yloxy]-1-aza-bicyclo[2.2.2]octane fumaric acid salt] | 197.9 | 6.89 |
| Clc1ccc2nc(OC3CN4CCC3CC4)sc2c1.O=C(O)/C=C/C(=O)O (racemic) [Compound B2, (±)-3-(6-Chloro-benzothiazol-2-yloxy)-1-aza-bicyclo[2.2.2]octane fumaric acid salt] | 203 to 205 | 6.74 |
| O=C(O)/C=C/C(=O)O.c1ccc(-c2nnc(OC3CN4CCC3CC4)s2)cc1 (racemic) | 168.5 to 172 | – |
| O=C(O)/C=C/C(=O)O.c1cc2c(cc1OC1CN3CCC1CC3)CCCC2 (racemic) | 109.7 to 111.3 | – |
| O=C(O)/C=C/C(=O)O.c1ccc2cc(OC3CN4CCC3CC4)ccc2c1 (racemic) | 140.9 to 141.6 | – |
| Brc1cnc(OC2CN3CCC2CC3)s1.O=C(O)/C=C/C(=O)O (racemic) | 157.8 to 162.1 | – |
| O=C(O)/C=C/C(=O)O.c1ccc2nc(OC3CN4CCC3CC4)ccc2c1 (racemic) | 160 to 160.5 | – |
| COc1nc2ccccc2nc1OC1CN2CCC1CC2.O=C(O)/C=C/C(=O)O (racemic) | 168.5 to 170 | – |
